Measured values: paper PMC9213561, “3-nitroimidazo[1,2-b]pyridazine as a novel scaffold for antiparasitics with sub-nanomolar anti-Giardia lamblia activity” (International Journal for Parasitology: Drugs and Drug …, 2022)
Read-outs that look alike come from different tables or passages of the source.

Experiments:
[1] = target: hPDE4B (Homo sapiens, UniProt Q07343); assay: Human PDE4 activity inhibition; type: biochemical; settings: for Ki: mean ± standard deviation, n ≥ 2
Method: (§1) G. lamblia trophozoites (WBC6) were seeded into 96-well-plates in 0.2 mL Keister-medium containing 10^3 trophozoites per well in the presence of the compounds dissolved in dimethyl sulfoxide (DMSO, final concentration 0.25%) or with DMSO as a solvent control and incubated for 72 h at 37 °C in an anaerobic chamber (80% N2, 10% H2, 10% CO2). Then, plates were centrifuged (2 min, 1000 rpm), medium was removed, and cells were washed once with PBS containing 1 g/L glucose. Then, PBS-glucose containing 10 mg/L resazurin was added, and plates were incubated for up to 5 h at 37 °C. Fluorescence reading (ex 530 nm/em 590 nm) was performed at various time points, and the linear increase of fluorescence was used as a marker for cell viability. IC50 values were calculated using the logit-log algorithm and are given as mean values with 95%-confidence intervals ([Müller et al., 2020]; [Müller and Hemphill, 2013]; [Müller and Müller, 2019]). The assays for growth inhibition of T. b. brucei, T. cruzi, L. infantum, P. falciparum and MRC-5 (human lung fibroblasts MRC-5SV40) were previously described ([Blaazer et al., 2014]). PDE activity was determined exactly as described ([de Heuvel et al., 2021]; [Kunz et al., 2005], [2017b]). All assays were carried out in triplicates and no more than 20% substrate was hydrolyzed in all reactions. Compounds were dissolved in DMSO and the final DMSO concentration was 1% in all reaction mixes. Control reactions with DMSO alone were always included. Data were analyzed using the GraphPad Prism software package (v7.0, GraphPad, San Diego).

[2] = system: MRC-5 (human lung fibroblasts MRC-5SV40); assay: Cytotoxicity on MRC-5 cells; type: cell-based; settings: MRC5, mean ± standard deviation, n ≥ 2, read-out: IC50 (nM) MRC-5
Method: as §1, with “[…]-medium” for “Keister-medium”, “([[…],” for “([Müller et al., 2020]; [Müller and Hemphill, 2013]; [Müller and Müller,”

[3] = system: G. lamblia trophozoites (WBC6); assay: Growth inhibition of G. lamblia trophozoites (WBC6), resazurin viability read-out; type: cell-based, Giardia lamblia; settings: for IC50: Giardia duodenalis; for fold decrease of anti-Giardia activity: compared with 18; for fold higher anti-Giardia activity than metronidazole: versus metronidazole IC50 = 0.8 μM
Method: as §1
Figure S67. Representative drug susceptibility curves of G. lamblia WBC6. Trophozoites were grown anaerobically in the presence of various concentrations of 17 (red), 29 (blue) and the reference compound metronidazole (MET, black). After 72 h, growth of cells was monitored by a cell viability assay based on the reduction of resazurin to a pink fluorescent product. Measured fluorescence units were normalized to the DMSO control. Data points and error bars represent mean and standard error of 4 replicates.

[4] = system: Plasmodium falciparum; assay: Growth inhibition of P. falciparum; type: cell-based; settings: mean ± standard deviation, n ≥ 2, read-out: IC50 (µM) P.f.
Method: as §1, with “[…]-medium” for “Keister-medium”, “([[…],” for “([Müller et al., 2020]; [Müller and Hemphill, 2013]; [Müller and Müller,”

[5] = system: Leishmania infantum; assay: Growth inhibition of L. infantum; type: cell-based; settings: mean ± standard deviation, n ≥ 2
Method: as §1

[6] = system: Trypanosoma brucei brucei; assay: Growth inhibition of T. b. brucei; type: cell-based; settings: mean ± standard deviation, n ≥ 2
Method: as §1

[7] = system: Trypanosoma cruzi; assay: Growth inhibition of T. cruzi; type: cell-based; settings: mean ± standard deviation, n ≥ 2
Method: as §1

[8] = target: GlPDE (aa588-1371) (Giardia lamblia, UniProt A0A644EZ75); assay: GlPDE activity inhibition; type: biochemical; settings: for Ki: mean ± standard deviation, n ≥ 2
Method: as §1
Figure S69. Representative dose-response curve of 11 against GlPDE (aa588-1371) enzyme (substrate concentration: 1 μM).

[9] = system: TbrPDEB1; parameters: method as in Blaazer et al., 2018; Kunz et al., 2017b; settings: Fig. 2; ref Blaazer et al., 2018; Kunz et al., 2017b; cited from earlier work
[10] = system: T.b. brucei; parameters: method as in Blaazer et al., 2018; Kunz et al., 2017b; settings: Fig. 2; ref Blaazer et al., 2018; Kunz et al., 2017b; cited from earlier work
[11] = system: G. lamblia; parameters: method as in Blaazer et al., 2018; Kunz et al., 2017b; settings: Fig. 2; ref Blaazer et al., 2018; Kunz et al., 2017b; cited from earlier work
[12] = system: GlPDE; parameters: method as in Blaazer et al., 2018; Kunz et al., 2017b; settings: Fig. 2; ref Blaazer et al., 2018; Kunz et al., 2017b; cited from earlier work
[13] = WBC6 trophozoites, 72 h, anaerobic, mean ± standard error (95% CI, logit-log), quadruplicates, read-out: IC50 (nM) G.l.

hPDE4B, sequence (Q07343 330-659 limits assumed): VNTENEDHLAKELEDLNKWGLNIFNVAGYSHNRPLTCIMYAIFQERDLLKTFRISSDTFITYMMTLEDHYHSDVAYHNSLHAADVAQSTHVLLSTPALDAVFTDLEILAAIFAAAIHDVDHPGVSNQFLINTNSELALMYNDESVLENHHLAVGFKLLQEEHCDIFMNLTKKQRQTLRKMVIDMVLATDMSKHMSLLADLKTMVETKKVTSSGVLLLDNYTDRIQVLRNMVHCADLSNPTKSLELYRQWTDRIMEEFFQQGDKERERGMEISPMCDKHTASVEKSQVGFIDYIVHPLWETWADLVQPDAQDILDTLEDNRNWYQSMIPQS

Ki [1] [µM] | IC50 [3, 13] [nM] | IC50 [4] [µM] | IC50 [5] [µM] | IC50 [6] [µM] | IC50 [7] [µM] | Ki [8] [µM] | SMILES | IC50 [2] [nM] | fold higher anti-Giardia activity than metronidazole [3] | other results
0.0032 ± 0.0004 | 0.2 ± 0.1 | 33.8 ± 37 | 26.4 ± 8.6 | > 64 | 50.9 ± 4.7 | > 10 | COc1ccc(C2=NN(C3CCN(c4ccc5ncc([N+](=O)[O-])n5n4)CC3)C(=O)CC2)cc1OC [Compound 18, 6-(3,4-Dimethoxyphenyl)-2-(1-(3-nitroimidazo[1,2-b]pyridazin-6-yl)piperidin-4-yl)-4,5-dihydropyridazin-3(2H)-one] | > 64000 |  | fold decrease of hPDE4 affinity ([1]; compared with 11): 20 fold; IC50 ([3]; text value in pM, read-out: anti-Giardia IC50 on growth inhibition): ~0.2 nM; fold increase in anti-Giardia potency ([3]; compared with 11 (cyclohexene ring removed)): 2.5 fold; GlPDE Ki over IC50 for Giardia growth inhibition [8]: over 50,000 fold
0.005 ± 0.001 | 930 ± 100 | > 64 | > 64 | > 64 | > 64 | > 1000 | COc1ccc(C2=NN(C3CCN(c4ccc5nccn5n4)CC3)C(=O)CC2)cc1OC [Compound 20, 6-(3,4-Dimethoxyphenyl)-2-(1-(imidazo[1,2-b]pyridazin-6-yl)piperidin-4-yl)-4,5-dihydropyridazin-3(2H)-one] | > 64000 |  | fold decrease of anti-Giardia activity [3]: 4,500 fold; GlPDE inhibition (in words) [8]: no GlPDE inhibition
0.2 ± 0.05 | 19 ± 3.2 | 7.2 ± 0.4 | 28.9 ± 31 | 22.2 ± 15.9 | 5.4 ± 4.1 | > 1000 | COc1ccc(C2=NN(C3CCN(c4ccc5ncc([N+](=O)[O-])n5n4)CC3)C(=O)CC2)cc1Cl [Compound 19, 6-(3-Chloro-4-methoxyphenyl)-2-(1-(3-nitroimidazo[1,2-b]pyridazin-6-yl)piperidin-4-yl)-4,5-dihydropyridazin-3(2H)-one] | > 64000 | 40 fold | fold decrease of affinity for hPDE4B ([1]; compared to 18): 60 fold; fold decrease of anti-Giardia activity [3]: 100 fold
 | 22 ± 3 | > 64 | > 64 | > 64 | > 64 |  | CN(C)c1ccc2ncc([N+](=O)[O-])n2n1 [Compound 21, N,N-Dimethyl-3-nitroimidazo[1,2-b]pyridazin-6-amine] | > 64000 |  | 

Second part, the molecule before the results:

SMILES | Ki [1] [µM] | IC50 [3, 13] [nM] | IC50 [4] [µM] | IC50 [5] [µM] | IC50 [6] [µM] | IC50 [7] [µM] | Ki [8] [µM] | IC50 [2] [nM] | fold higher anti-Giardia activity than metronidazole [3] | other results
COc1ccc(C2=NN(C3CCCCCC3)C(=O)[C@H]3CC=CC[C@@H]23)cc1OCCCCOc1ccc(-c2nn[nH]n2)cc1 [Compound 9] |  |  |  |  |  |  |  |  |  | IC50 [9]: […]; IC50 [10]: 0.08 µM; IC50 [11]: 6.9 µM; IC50 [12]: 0.8 µM
COc1ccc(C2=NN(C3CCN(c4ccc5ncc([N+](=O)[O-])n5n4)CC3)C(=O)[C@@H]3CC=CC[C@H]23)cc1OC [Compound 11, (4aS,8aR)-4-(3,4-Dimethoxyphenyl)-2-(1-(3-nitroimidazo[1,2-b]pyridazin-6-yl)piperidin-4-yl)-4a,5,8,8a-tetrahydrophthalazin-1(2H)-one] | 0.00016 ± 2e-05 | 0.5 ± 0.2 | 6.3 ± 0.4 | 27.4 ± 25.3 | 1 ± 0.7 | 5.9 ± 4.5 | 0.5 ± 0.3 | > 64000 | > 1,000 fold | fold more active against human PDE4 than against GlPDE ([1]; Ki hPDE4 versus Ki GlPDE): 3,000 fold
COc1ccc(C2=NN(C3CCN(S(=O)(=O)c4cccc5cccnc45)CC3)C(=O)[C@@H]3CC=CC[C@H]23)cc1OC [Compound 10] |  |  |  |  |  |  |  |  |  | IC50 [9]: 0.03 µM; IC50 [10]: 0.42 µM; IC50 [11]: 1.5 µM; IC50 [12]: 3 µM
COc1ccc(C2=NN(C3CCN(c4ccc5ncc([N+](=O)[O-])n5n4)CC3)C(=O)[C@H]3CC=CC[C@@H]23)cc1OCc1ccccn1 (relative stereo) [Compound 17, cis-4-(4-Methoxy-3-(pyridin-2-ylmethoxy)phenyl)-2-(1-(3-nitroimidazo[1,2-b]pyridazin-6-yl)piperidin-4-yl)-4a,5,8,8a-tetrahydrophthalazin-1(2H)-one] |  | 0.5 ± 0.1 | 2.3 ± 1.4 | 11.8 ± 7.5 | 4.92 ± 1.6 | 2.1 ± 0.1 |  | > 64000 | > 1,000 fold | 
